What was measured:
Assay in all cases: Kinase panel (Carna)
Format in all cases: biochemical
[1] = molecular target: T1, ITK (Homo sapiens, UniProt Q08881)
T1 construct: purchased Carna Biosciences
Source text: (§1) Detailed information on the assay conditions is available on the website of Carna Biosciences (http://www.carnabio.com).

[2] = molecular target: T2, PKCθ (Homo sapiens, UniProt Q04759)
T2 construct: purchased Carna Biosciences
Source text: as §1

[3] = molecular target: T3, NDR2 (Homo sapiens, UniProt Q9Y2H1)
T3 construct: purchased Carna Biosciences
Source text: as §1

[4] = molecular target: T4, PAK5 (Homo sapiens, UniProt Q9P286)
T4 construct: purchased Carna Biosciences
Source text: as §1

[5] = molecular target: T5, EPHB2 (Homo sapiens, UniProt P29323)
T5 construct: purchased Carna Biosciences
T5 sequence (P29323 19-1055): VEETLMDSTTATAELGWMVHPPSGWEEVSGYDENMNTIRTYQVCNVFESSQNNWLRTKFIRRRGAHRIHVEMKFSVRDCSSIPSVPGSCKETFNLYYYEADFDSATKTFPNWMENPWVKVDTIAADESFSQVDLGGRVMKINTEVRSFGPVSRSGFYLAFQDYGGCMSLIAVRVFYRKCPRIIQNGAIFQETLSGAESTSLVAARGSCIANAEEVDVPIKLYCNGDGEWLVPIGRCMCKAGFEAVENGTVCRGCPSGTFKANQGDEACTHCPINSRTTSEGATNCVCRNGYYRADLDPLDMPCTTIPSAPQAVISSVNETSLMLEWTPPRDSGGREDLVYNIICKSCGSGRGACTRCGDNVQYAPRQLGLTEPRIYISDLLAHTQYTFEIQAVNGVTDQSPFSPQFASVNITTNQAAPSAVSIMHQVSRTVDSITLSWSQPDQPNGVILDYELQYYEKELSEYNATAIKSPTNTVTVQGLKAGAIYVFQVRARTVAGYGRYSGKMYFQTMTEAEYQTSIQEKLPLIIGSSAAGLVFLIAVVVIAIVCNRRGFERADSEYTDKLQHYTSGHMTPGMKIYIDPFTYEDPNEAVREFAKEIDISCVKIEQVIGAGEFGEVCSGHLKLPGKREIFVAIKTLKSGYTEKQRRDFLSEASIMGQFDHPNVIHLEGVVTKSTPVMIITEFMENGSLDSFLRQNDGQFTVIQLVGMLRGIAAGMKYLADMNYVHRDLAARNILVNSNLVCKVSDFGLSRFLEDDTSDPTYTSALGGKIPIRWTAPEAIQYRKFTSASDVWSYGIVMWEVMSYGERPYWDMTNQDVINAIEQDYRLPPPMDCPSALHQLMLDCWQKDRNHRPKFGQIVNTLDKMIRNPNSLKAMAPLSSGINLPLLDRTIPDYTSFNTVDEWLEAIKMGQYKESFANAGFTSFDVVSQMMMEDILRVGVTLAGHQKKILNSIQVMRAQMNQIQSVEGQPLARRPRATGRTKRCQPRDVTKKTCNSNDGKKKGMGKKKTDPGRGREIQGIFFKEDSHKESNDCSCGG
Source text: as §1

[6] = molecular target: T6, SRC (Homo sapiens, UniProt P12931)
T6 construct: purchased Carna Biosciences
Source text: as §1

[7] = molecular target: T7, FER (Homo sapiens, UniProt P16591)
T7 construct: purchased Carna Biosciences
Source text: as §1

[8] = molecular target: T8, AurA/TPX2 (Homo sapiens, UniProt O14965)
T8 construct: purchased Carna Biosciences
Source text: as §1

[9] = molecular target: T9, MRCKβ (Homo sapiens, UniProt Q9Y5S2)
T9 construct: purchased Carna Biosciences

[10] = molecular target: T10, CDK6/CycD3 (Homo sapiens, UniProt Q00534)
T10 construct: purchased Carna Biosciences
Source text: as §1

[11] = molecular target: T11, EPHA4 (Homo sapiens, UniProt P54764)
T11 construct: purchased Carna Biosciences

[12] = molecular target: T12, Erk2 (Homo sapiens, UniProt P28482)
T12 construct: purchased Carna Biosciences
T12 sequence (P28482 whole entry): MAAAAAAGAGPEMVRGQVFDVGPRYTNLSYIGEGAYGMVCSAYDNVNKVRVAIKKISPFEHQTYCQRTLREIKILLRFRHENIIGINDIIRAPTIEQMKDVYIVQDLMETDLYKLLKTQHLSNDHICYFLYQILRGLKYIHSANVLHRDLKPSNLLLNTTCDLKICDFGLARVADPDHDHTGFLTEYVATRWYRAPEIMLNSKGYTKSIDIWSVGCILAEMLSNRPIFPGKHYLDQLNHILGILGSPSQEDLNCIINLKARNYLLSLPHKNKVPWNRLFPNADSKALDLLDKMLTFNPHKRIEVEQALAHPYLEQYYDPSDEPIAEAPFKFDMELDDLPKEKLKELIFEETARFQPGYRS

[13] = molecular target: T13, AKT1 (Homo sapiens, UniProt P31749)
T13 construct: purchased Carna Biosciences
Source text: as §1

[14] = molecular target: T14, CaMK4 (Homo sapiens, UniProt Q16566)
T14 construct: purchased Carna Biosciences

[15] = molecular target: T15, CHK1 (Homo sapiens, UniProt O14757)
T15 construct: purchased Carna Biosciences
Source text: as §1

[16] = molecular target: T16, PHKG2 (Homo sapiens, UniProt P15735)
T16 construct: purchased Carna Biosciences
T16 sequence (P15735 whole entry): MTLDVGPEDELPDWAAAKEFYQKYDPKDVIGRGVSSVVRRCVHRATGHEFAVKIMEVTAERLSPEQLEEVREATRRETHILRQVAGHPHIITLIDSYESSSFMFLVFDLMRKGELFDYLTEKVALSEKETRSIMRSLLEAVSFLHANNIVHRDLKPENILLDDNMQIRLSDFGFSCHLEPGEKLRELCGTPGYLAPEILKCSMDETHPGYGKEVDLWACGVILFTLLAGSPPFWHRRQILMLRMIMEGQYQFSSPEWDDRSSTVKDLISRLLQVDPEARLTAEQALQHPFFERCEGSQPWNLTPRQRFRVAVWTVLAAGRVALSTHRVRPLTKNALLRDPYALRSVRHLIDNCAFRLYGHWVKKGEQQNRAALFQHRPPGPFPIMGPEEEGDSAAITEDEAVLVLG
Source text: as §1

[17] = molecular target: T17, PAK4 (Homo sapiens, UniProt O96013)
T17 construct: purchased Carna Biosciences
Source text: as §1

[18] = molecular target: T18, HIPK2 (Homo sapiens, UniProt Q9H2X6)
T18 construct: purchased Carna Biosciences
Source text: as §1

[19] = molecular target: T19, EPHA6 (Homo sapiens, UniProt Q9UF33)
T19 construct: purchased Carna Biosciences
T19 sequence (Q9UF33 23-1036): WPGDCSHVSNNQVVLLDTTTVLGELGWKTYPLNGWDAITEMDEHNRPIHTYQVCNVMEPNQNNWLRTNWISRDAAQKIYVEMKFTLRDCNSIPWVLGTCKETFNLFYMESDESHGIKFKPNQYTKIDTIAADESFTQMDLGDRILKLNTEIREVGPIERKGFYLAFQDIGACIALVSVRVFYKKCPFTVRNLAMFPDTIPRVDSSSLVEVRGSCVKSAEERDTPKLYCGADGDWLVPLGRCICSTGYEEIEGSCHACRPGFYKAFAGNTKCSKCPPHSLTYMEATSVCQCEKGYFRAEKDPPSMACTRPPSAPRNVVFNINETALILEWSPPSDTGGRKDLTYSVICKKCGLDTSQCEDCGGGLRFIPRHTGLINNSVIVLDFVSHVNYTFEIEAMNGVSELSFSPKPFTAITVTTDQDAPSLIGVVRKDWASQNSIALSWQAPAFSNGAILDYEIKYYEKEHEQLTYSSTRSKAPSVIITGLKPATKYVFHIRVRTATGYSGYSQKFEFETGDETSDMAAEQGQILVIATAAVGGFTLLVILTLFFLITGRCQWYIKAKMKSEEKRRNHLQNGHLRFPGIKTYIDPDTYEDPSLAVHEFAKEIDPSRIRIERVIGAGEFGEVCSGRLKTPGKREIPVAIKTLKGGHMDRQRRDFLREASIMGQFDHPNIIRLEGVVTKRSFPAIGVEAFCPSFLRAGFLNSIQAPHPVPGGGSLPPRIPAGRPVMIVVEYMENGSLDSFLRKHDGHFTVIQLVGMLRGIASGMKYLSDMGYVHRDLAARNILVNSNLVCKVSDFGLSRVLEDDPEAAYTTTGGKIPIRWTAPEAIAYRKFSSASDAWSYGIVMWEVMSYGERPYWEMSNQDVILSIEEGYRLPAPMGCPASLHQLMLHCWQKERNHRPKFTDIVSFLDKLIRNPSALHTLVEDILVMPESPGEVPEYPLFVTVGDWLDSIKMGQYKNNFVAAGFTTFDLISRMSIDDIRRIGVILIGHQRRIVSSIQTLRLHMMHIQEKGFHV

[20] = molecular target: T20, JAK3 (Homo sapiens, UniProt P52333)
T20 construct: purchased Carna Biosciences
Source text: as §1

[21] = molecular target: T21, EPHA1 (Homo sapiens, UniProt P21709)
T21 construct: purchased Carna Biosciences

[22] = molecular target: T22, MST1 (Homo sapiens, UniProt Q13043)
T22 construct: purchased Carna Biosciences
Source text: as §1

[23] = molecular target: T23, JNK3 (Homo sapiens, UniProt P53779)
T23 construct: purchased Carna Biosciences

[24] = molecular target: T24, HIPK3 (Homo sapiens, UniProt Q9H422)
T24 construct: purchased Carna Biosciences
Source text: as §1

[25] = molecular target: T25, MNK2 (Homo sapiens, UniProt Q9HBH9)
T25 construct: purchased Carna Biosciences

[26] = molecular target: T26, WNK3 (Homo sapiens, UniProt Q9BYP7)
T26 construct: purchased Carna Biosciences
Source text: as §1

[27] = molecular target: T27, MSK1 (Homo sapiens, UniProt O75582)
T27 construct: purchased Carna Biosciences
Source text: as §1

[28] = molecular target: T28, PKCη (Homo sapiens, UniProt P24723)
T28 construct: purchased Carna Biosciences
Source text: as §1

[29] = molecular target: T29, KDR (Homo sapiens, UniProt P35968)
T29 construct: purchased Carna Biosciences
Source text: as §1

[30] = molecular target: T30, MAP3K4_Cascade (Homo sapiens, UniProt Q9Y6R4)
T30 construct: purchased Carna Biosciences
Source text: as §1

[31] = molecular target: T31, CDC2/CycB1 (Homo sapiens, UniProt P06493)
T31 construct: purchased Carna Biosciences
T31 sequence (P06493 whole entry): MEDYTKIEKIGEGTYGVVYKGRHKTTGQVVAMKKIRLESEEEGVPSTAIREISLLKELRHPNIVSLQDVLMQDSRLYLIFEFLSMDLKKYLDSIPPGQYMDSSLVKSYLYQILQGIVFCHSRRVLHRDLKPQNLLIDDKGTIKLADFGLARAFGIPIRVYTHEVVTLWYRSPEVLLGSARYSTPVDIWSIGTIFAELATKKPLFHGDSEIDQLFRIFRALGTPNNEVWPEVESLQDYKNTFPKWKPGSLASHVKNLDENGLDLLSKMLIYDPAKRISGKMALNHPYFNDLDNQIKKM
T31 sequence (P14635 whole entry partner): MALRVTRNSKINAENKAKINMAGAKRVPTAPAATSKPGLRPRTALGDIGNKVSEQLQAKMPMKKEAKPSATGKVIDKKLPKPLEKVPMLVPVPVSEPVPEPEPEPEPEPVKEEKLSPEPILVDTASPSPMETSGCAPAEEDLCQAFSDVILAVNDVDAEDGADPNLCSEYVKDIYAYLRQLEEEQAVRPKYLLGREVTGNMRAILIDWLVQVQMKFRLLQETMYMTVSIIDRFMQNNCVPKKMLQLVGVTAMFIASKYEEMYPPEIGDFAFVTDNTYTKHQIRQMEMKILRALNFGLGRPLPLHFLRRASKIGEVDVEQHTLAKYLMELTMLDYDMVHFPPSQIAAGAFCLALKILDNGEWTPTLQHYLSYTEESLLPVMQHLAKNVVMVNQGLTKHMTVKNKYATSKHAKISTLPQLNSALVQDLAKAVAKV

[32] = molecular target: T32, NEK6 (Homo sapiens, UniProt Q9HC98)
T32 construct: purchased Carna Biosciences
T32 sequence (Q9HC98 whole entry): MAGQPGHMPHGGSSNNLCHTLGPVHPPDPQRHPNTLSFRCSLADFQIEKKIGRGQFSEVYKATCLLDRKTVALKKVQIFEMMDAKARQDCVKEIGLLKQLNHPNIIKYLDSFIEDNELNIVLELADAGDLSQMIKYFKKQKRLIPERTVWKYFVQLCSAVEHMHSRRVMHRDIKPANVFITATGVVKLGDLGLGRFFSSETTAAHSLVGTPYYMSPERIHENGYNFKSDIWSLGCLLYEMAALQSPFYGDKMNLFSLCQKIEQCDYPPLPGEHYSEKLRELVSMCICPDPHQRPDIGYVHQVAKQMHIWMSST

[33] = molecular target: T33, PDHK2 (Homo sapiens, UniProt Q15119)
T33 construct: purchased Carna Biosciences
Source text: as §1

[34] = molecular target: T34, HIPK4 (Homo sapiens, UniProt Q8NE63)
T34 construct: purchased Carna Biosciences
Source text: as §1

[35] = molecular target: T35, CK2α2/β (Homo sapiens, UniProt P19784)
T35 construct: purchased Carna Biosciences

[36] = molecular target: T36, SGK3 (Homo sapiens, UniProt Q96BR1)
T36 construct: purchased Carna Biosciences

[37] = molecular target: T37, skMLCK (Homo sapiens, UniProt Q9H1R3)
T37 construct: purchased Carna Biosciences

[38] = molecular target: T38, PKACα (Homo sapiens, UniProt P17612)
T38 construct: purchased Carna Biosciences

[39] = molecular target: T39, MOS_Cascade (Homo sapiens, UniProt P00540)
T39 construct: purchased Carna Biosciences

[40] = molecular target: T40, PLK2 (Homo sapiens, UniProt Q9NYY3)
T40 construct: purchased Carna Biosciences

[41] = molecular target: T41, PKR (Homo sapiens, UniProt P19525)
T41 construct: purchased Carna Biosciences

[42] = molecular target: T42, AMPKα2/β1/γ1 (Homo sapiens, UniProt P54646)
T42 construct: purchased Carna Biosciences
Source text: as §1

[43] = molecular target: T43, EPHA5 (Homo sapiens, UniProt P54756)
T43 construct: purchased Carna Biosciences

[44] = molecular target: T44, MUSK (Homo sapiens, UniProt O15146)
T44 construct: purchased Carna Biosciences
Source text: as §1

T1 sequence (Q08881 whole entry): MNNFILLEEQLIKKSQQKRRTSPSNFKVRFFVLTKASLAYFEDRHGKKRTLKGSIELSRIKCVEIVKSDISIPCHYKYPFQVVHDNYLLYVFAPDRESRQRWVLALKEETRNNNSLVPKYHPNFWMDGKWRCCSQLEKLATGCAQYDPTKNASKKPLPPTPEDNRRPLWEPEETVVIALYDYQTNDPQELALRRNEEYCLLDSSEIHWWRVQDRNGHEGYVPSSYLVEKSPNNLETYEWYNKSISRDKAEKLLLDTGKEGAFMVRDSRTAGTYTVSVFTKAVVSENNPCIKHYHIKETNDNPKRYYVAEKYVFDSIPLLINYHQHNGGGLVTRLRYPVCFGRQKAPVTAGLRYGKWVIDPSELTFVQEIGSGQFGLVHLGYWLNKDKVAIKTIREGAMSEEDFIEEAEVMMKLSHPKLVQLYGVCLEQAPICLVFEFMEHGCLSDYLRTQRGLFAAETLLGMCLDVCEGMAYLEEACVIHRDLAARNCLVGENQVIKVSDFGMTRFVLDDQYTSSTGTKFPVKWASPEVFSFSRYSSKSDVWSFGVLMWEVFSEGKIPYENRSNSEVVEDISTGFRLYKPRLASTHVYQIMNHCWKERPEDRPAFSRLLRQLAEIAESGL
T3 sequence (Q9Y2H1 whole entry): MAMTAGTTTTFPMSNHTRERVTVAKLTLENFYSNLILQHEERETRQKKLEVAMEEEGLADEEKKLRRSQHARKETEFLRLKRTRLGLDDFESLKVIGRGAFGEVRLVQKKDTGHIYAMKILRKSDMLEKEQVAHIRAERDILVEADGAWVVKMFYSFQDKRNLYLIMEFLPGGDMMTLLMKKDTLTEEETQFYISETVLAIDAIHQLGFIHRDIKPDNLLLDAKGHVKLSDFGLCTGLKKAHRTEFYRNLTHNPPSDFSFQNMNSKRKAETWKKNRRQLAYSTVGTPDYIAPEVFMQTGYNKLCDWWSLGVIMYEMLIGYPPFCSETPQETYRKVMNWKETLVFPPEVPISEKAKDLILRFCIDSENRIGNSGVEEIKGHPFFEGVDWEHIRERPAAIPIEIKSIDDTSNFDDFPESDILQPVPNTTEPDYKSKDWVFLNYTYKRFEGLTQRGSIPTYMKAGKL

## COc1ccc(/C=C2\SC(=S)NC2=O)cc1C#C[Si](C)(C)C [FINDY]
[1]
  inhibition at 10 µM: 1.2%
[2]
  inhibition at 10 µM: 6.5%
[3]
  inhibition at 10 µM: 8.1%
[4]
  inhibition at 10 µM: -7%
[5]
  inhibition at 10 µM: 10.1%
[6]
  inhibition at 10 µM: 5.6%
[7]
  inhibition at 10 µM: 14.3%
[8]
  inhibition at 10 µM: 25.1%
[9]
  inhibition at 10 µM: 0.1%
[10]
  inhibition at 10 µM: 3.2%
[11]
  inhibition at 10 µM: 16.3%
[12]
  inhibition at 10 µM: 36.4%
[13]
  inhibition at 10 µM: 36.6%
[14]
  inhibition at 10 µM: 2.4%
[15]
  inhibition at 10 µM: -119%
[16]
  inhibition at 10 µM: 1.9%
[17]
  inhibition at 10 µM: -20.1%
[18]
  inhibition at 10 µM: 6.2%
[19]
  inhibition at 10 µM: 59.4%
[20]
  inhibition at 10 µM: 8.2%
[21]
  inhibition at 10 µM: 40.5%
[22]
  inhibition at 10 µM: -5.2%
[23]
  inhibition at 10 µM: 4.5%
[24]
  inhibition at 10 µM: 7.1%
[25]
  inhibition at 10 µM: 8.3%
[26]
  inhibition at 10 µM: 18.9%
[27]
  inhibition at 10 µM: 3.8%
[28]
  inhibition at 10 µM: -12.7%
[29]
  inhibition at 10 µM: 1.6%
[30]
  inhibition at 10 µM: 39.8%
[31]
  inhibition at 10 µM: 43.4%
[32]
  inhibition at 10 µM: 23.6%
[33]
  inhibition at 10 µM: 14.1%
[34]
  inhibition at 10 µM: 16.6%
[35]
  inhibition at 10 µM: 72.5%
[36]
  inhibition at 10 µM: 21.7%
[37]
  inhibition at 10 µM: 2%
[38]
  inhibition at 10 µM: 64.7%
[39]
  inhibition at 10 µM: 60.1%
[40]
  inhibition at 10 µM: 11.1%
[41]
  inhibition at 10 µM: 5.8%
[42]
  inhibition at 10 µM: 1.7%
[43]
  inhibition at 10 µM: 18.4%
[44]
  inhibition at 10 µM: 4.1%

— article PMC4844702, “Selective inhibition of the kinase DYRK1A by targeting its folding process” (Nature Communications, 2016)
